Data on 39 compounds can be found in patent US7528138B2, “Pyrazolo[1,5-a]pyrimidines useful as inhibitors of protein kinases” (Vertex Pharmaceuticals Incorporated, priority 2004, dated 2009).

One test deals with T1, Aurora-2 (Homo sapiens, UniProt O14965).
T1 sequence (O14965 1-403): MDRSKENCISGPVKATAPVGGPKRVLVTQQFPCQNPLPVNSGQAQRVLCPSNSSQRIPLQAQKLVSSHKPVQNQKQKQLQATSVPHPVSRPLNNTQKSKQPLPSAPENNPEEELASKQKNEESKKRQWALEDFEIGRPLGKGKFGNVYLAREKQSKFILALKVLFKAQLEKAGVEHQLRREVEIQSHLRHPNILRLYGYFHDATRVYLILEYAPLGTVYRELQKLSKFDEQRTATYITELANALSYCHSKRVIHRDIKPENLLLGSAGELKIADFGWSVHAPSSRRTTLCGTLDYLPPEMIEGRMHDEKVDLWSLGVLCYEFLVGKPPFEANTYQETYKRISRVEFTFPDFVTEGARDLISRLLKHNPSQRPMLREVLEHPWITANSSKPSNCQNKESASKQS
The experiment in a line: Aurora-A (Aurora-2) Inhibition Assay, coupled enzyme assay. Type of test: biochemical. The note with it: enzyme inhibition data (Ki), Table 11; read-out: AurA Ki. As for the experimental part:
Compounds are screened for their ability to inhibit Aurora-2 using a standard coupled enzyme assay (Fox et al., Protein Sci., (1998) 7, 2249). Assays are carried out in a mixture of 100 mM Hepes (pH7.5), 10 mM MgCl2, 1 mM DTT, 25 mM NaCl, 2.5 mM phosphoenolpyruvate, 300 μM NADH, 30 μg/ml pyruvate kinase and 10 μg/ml lactate dehydrogenase. Final substrate concentrations in the assay are 400 μM ATP (Sigma Chemicals) and 570 μM peptide (Kemptide, American Peptide, Sunnyvale, Calif.). Assays are carried out at 30° C. and in the presence of 40 nM Aurora-2.
An assay stock buffer solution is prepared containing all of the reagents listed above, with the exception of Aurora-2 and the test compound of interest. 55 μl of the stock solution is placed in a 96 well plate followed by addition of 2 μl of DMSO stock containing serial dilutions of the test compound (typically starting from a final concentration of 7.5 μM). The plate is preincubated for 10 minutes at 30° C. and the reaction initiated by addition of 10 μl of Aurora-2. Initial reaction rates are determined with a Molecular Devices SpectraMax Plus plate reader over a 10 minute time course. IC50 and Ki data are calculated from non-linear regression analysis using the Prism software package (GraphPad Prism version 3.0cx for Macintosh, GraphPad Software, San Diego Calif., USA).

In another test the target is T2, JAK3 (Homo sapiens, UniProt P52333).
T2 sequence (P52333 1-1124): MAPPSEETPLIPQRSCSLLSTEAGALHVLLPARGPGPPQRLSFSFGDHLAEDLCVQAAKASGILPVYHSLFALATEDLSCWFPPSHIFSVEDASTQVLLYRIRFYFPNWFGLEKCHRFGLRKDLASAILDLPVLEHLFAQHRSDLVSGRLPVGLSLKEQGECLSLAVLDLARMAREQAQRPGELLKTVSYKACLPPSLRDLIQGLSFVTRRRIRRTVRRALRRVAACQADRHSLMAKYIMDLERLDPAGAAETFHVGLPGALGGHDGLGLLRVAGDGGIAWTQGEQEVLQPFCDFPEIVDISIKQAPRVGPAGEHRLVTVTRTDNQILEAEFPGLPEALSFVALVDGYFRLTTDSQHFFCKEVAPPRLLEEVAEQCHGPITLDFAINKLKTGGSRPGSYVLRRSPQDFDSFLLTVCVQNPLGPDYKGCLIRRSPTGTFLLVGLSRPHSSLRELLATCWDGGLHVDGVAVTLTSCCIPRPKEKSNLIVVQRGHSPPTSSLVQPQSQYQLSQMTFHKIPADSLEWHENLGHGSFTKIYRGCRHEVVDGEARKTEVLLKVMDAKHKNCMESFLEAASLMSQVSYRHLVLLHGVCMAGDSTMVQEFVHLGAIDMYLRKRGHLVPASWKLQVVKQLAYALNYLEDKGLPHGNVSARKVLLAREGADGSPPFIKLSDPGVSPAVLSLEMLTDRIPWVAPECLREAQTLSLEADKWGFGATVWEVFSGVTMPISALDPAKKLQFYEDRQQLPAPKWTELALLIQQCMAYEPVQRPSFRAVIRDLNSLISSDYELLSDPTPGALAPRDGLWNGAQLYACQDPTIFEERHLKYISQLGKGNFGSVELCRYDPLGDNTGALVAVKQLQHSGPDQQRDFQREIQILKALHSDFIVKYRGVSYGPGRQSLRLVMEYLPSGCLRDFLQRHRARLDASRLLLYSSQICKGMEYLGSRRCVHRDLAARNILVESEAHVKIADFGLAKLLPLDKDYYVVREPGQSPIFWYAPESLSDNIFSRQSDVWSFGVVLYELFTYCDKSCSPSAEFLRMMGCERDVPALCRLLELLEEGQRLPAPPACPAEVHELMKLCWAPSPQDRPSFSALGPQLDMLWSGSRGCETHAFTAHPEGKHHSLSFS
The experiment in a line: JAK3 Inhibition Assay, 33P incorporation. The class given is biochemical. The note with it: enzyme inhibition data (Ki), Table 11. A digest of the protocol:
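33P incorporation into 1 μM poly(Glu)4Tyr was counted after TCA stop and glass fiber filtration. The 20 min reaction ran at 25 °C with 1 nM JAK3 and 5 μM ATP (200 uCi/μmole). Buffer was 100 mM HEPES pH 7.4, 10 mM MgCl2, 25 mM NaCl, 1 mM DTT, 0.01% BSA.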

A value given as a limit tells only on which side of the number the result lay.

For orientation: Ki means a dissociation constant, usually derived from enzyme kinetics or from competition with a known ligand. `C#CCN(C)C(=O)c1cccc(-c2cnc3c(-c4ccccn4)c(N)nn3c2)n1` [Compound V-106]: the figures for the inhibition constant (Ki) on Aurora-2 and on JAK3 were 500 to 5000 nM and above 5000 nM, respectively.
The corresponding values for `CCN(C)C(=O)c1cccc(-c2cnc3c(-c4ccccn4)c(N)nn3c2)n1` [Compound V-115] are 500 to 5000 nM and above 5000 nM.
For `NC1CCN(Cc2cccc(C3=CN4NC(N)C(c5ccccn5)=C4N=C3)c2)CC1` (stereo not drawn) [Compound V-229], the inhibition constant (Ki) at Aurora-2 is 500 to 5000 nM; at JAK3, above 5000 nM.
The corresponding values for `CN(C)CCNc1ccc(-c2cnc3c(-c4ccccn4)c(N)nn3c2)cn1` [Compound V-159] are 500 to 5000 nM and 500 to 5000 nM.
Taken in the same sequence, the figures for `COCCCN1CCN(C(=O)c2ccc(-c3cnc4c(-c5ccccn5)c(N)nn4c3)nc2)CC1` [Compound V-129] were below 500 nM and 500 to 5000 nM.
For the compound `CC(C)CNc1cc(-c2c(N)nn3cc(-c4ccncc4)cnc23)ncn1` [Compound V-185], the inhibitory constant (Ki) on Aurora-2 and on JAK3 was below 500 nM throughout.
For `CC(C)Nc1cc(-c2c(N)nn3cc(-c4ccncc4)cnc23)ncn1` [Compound V-182], the Ki at Aurora-2 and on JAK3 was below 500 nM each time.
In the case of `CN(CCCN)C(=O)c1ccc(-c2cnc3c(-c4ccccn4)c(N)nn3c2)nc1` [Compound V-130], the inhibitory constant (Ki) is 500 to 5000 nM on Aurora-2 and above 5000 nM at JAK3.
The corresponding values for `NCc1ccc(-c2cnc3c(-c4ccccn4)c(N)nn3c2)cc1` [Compound V-195] are below 500 nM and 500 to 5000 nM.
Taken in the same sequence, the figures for `CN(C)Cc1cccc(-c2cnc3c(-c4ccccn4)c(N)nn3c2)c1` [Compound V-215] were 500 to 5000 nM and above 5000 nM.
Consider `CNCCCN(C)Cc1ccc(-c2cnc3c(-c4ccccn4)c(N)nn3c2)cc1` [Compound V-230], for which the Ki is below 500 nM at Aurora-2 and 500 to 5000 nM on JAK3.
Taken in the same sequence, the figures for `NC1NN2C=C(c3cccc(CN4CC[C@@H](N)C4)c3)C=NC2=C1c1ccccn1` (stereo partly drawn) [Compound V-226] were 500 to 5000 nM and above 5000 nM.
Taken in the same sequence, the figures for `Nc1nn2cc(-c3ccncc3)cnc2c1-c1cc(Nc2ccccc2)ncn1` [Compound V-241] were below 500 nM and below 500 nM.
The corresponding values for `Nc1nn2cc(-c3cccc(CN4CCOCC4)c3)cnc2c1-c1ccccn1` [Compound V-225] are 500 to 5000 nM and above 5000 nM.
In the case of `Nc1nn2cc(-c3ccncc3)cnc2c1-c1cc(N2CCCCC2)ncn1` [Compound V-179], the Ki at Aurora-2 and on JAK3 was below 500 nM throughout.
As for `Nc1nn2cc(-c3ccc(CN4CCOCC4)cc3)cnc2c1-c1ccccn1` [Compound V-208], the figures for the inhibition constant (Ki) at Aurora-2 and on JAK3 were below 500 nM and 500 to 5000 nM, respectively.
The corresponding values for `Nc1nn2cc(-c3ccc4[nH]ccc4c3)cnc2c1-c1ccccn1` [Compound V-212] are below 500 nM and above 5000 nM.
Take `Nc1nn2cc(-c3ccc(CO)cc3)cnc2c1-c1ccccn1` [Compound V-194]: the inhibition constant Ki at Aurora-2 was below 500 nM; on JAK3, 500 to 5000 nM.
The corresponding values for `CCN1CCN(c2ccc(-c3cnc4c(-c5ccccn5)c(N)nn4c3)cn2)CC1` [Compound V-166] are 500 to 5000 nM and above 5000 nM.
Taken in the same sequence, the figures for `CC(C)CN(C)C(=O)c1ccc(-c2cnc3c(-c4ccccn4)c(N)nn3c2)nc1` [Compound V-97] were below 500 nM and 500 to 5000 nM.
The corresponding values for `Nc1nn2cc(-c3ccncc3)cnc2c1-c1cc(NC2CCCCC2)ncn1` [Compound V-183] are below 500 nM and 500 to 5000 nM.
Regarding `Nc1nn2cc(-c3ccc(CN4CC[C@@H](N)C4)cc3)cnc2c1-c1ccccn1` [Compound V-231], the Ki on Aurora-2 is below 500 nM; at JAK3 it was 500 to 5000 nM.
With `Nc1nn2cc(-c3ccc(CNC4CCNCC4)cc3)cnc2c1-c1ccccn1` [Compound V-232], the Ki is 500 to 5000 nM at Aurora-2 and above 5000 nM on JAK3.
Taken in the same sequence, the figures for `CNC(=O)c1cnc2c(-c3ccccn3)c(N)nn2c1` [Compound V-204] were 500 to 5000 nM and above 5000 nM.
On to `Nc1nn2cc(-c3cccc(C(=O)N4CCC[C@H]4CN4CCCC4)n3)cnc2c1-c1ccccn1` [Compound V-154], for which the inhibition constant (Ki) on Aurora-2 is 500 to 5000 nM; on JAK3 it was above 5000 nM.
With `COc1ccc(-c2cn3nc(N)c(-c4ccccn4)c3nc2C)cc1` [Compound V-216], the inhibitory constant (Ki) on Aurora-2 was 500 to 5000 nM; on JAK3, above 5000 nM.
Taken in the same sequence, the figures for `COC(=O)C1CCCN1C(=O)c1cccc(-c2cnc3c(-c4ccccn4)c(N)nn3c2)n1` (stereo not drawn) [Compound V-139] were 500 to 5000 nM and above 5000 nM.
The corresponding values for `CCN(CC)CCN(C)C(=O)c1cccc(-c2cnc3c(-c4ccccn4)c(N)nn3c2)n1` [Compound V-124] are 500 to 5000 nM and above 5000 nM.
The corresponding values for `CCN(CC)C(=O)c1cccc(-c2cnc3c(-c4ccccn4)c(N)nn3c2)n1` [Compound V-127] are 500 to 5000 nM and above 5000 nM.
For the compound `CC(C)(O)C#Cc1cnc2c(-c3ccccn3)c(N)nn2c1` [Compound V-237], the Ki at Aurora-2 and on JAK3 was 500 to 5000 nM throughout.
Regarding `Nc1nn2cc(-c3cccc(CO)c3)cnc2c1-c1ccccn1` [Compound V-221], the Ki at Aurora-2 and at JAK3 was 500 to 5000 nM throughout.
Consider `Nc1nn2cc(C(=O)NC3CCCNC3)cnc2c1-c1ccccn1` (stereo not drawn) [Compound V-206], for which the Ki was 500 to 5000 nM on Aurora-2 and above 5000 nM on JAK3.
The corresponding values for `CNCc1ccc(-c2cnc3c(-c4ccccn4)c(N)nn3c2)cc1` [Compound V-236] are below 500 nM and 500 to 5000 nM.
For `CN(CCCN)C(=O)c1cccc(-c2cnc3c(-c4ccccn4)c(N)nn3c2)n1` [Compound V-155], the Ki at Aurora-2 and at JAK3 was 500 to 5000 nM each time.
For `CC(C)CN(C)c1cc(-c2c(N)nn3cc(-c4ccncc4)cnc23)ncn1` [Compound V-243], the inhibition constant (Ki) on Aurora-2 and on JAK3 was below 500 nM in each case.
On to `CN1CCCN(c2ccc(-c3cnc4c(-c5ccccn5)c(N)nn4c3)cn2)CC1` [Compound V-160], for which the Ki on Aurora-2 is 500 to 5000 nM; on JAK3, above 5000 nM.
The corresponding values for `Nc1nn2cc(-c3ccc(N4CCC[C@@H]4CN4CCCC4)nc3)cnc2c1-c1ccccn1` [Compound V-176] are 500 to 5000 nM and 500 to 5000 nM.
On to `Nc1nn2cc(-c3ccc(CN4CCC(N)CC4)cc3)cnc2c1-c1ccccn1` [Compound V-234], for which the Ki is below 500 nM at Aurora-2 and 500 to 5000 nM on JAK3.
Taken in the same sequence, the figures for `Cc1ccnc(-c2c(N)nn3cc(-c4ccncc4)cnc23)c1` [Compound V-133] were below 500 nM and 500 to 5000 nM.
